Test results taken from paper PMC10298530, “Synthesis and Anticancer Activity of A-Ring-Modified Derivatives of Dihydrobetulin” (International Journal of Molecular Sciences, 2023).
Like-named read-outs stand apart in the source and are kept apart here.

Tests used:
RD TE32 = experiment: MTT cell viability assay, RD TE32; assay type: cell-based, human; details: for IC50: Homo sapiens; for Selectivity index (SI): ratio of IC50 values healthy (HEK293) / RD TE32
Description: (§1) Blokhin National Medical Research Center of Oncology (the Ministry of Health of the Russian Federation, Moscow).

HBL-100 = experiment: MTT cell viability assay, HBL-100; assay type: cell-based, human; details: for IC50: Homo sapiens; for Selectivity index (SI): ratio of IC50 values healthy (HEK293) / HBL-100
Protocol: (§2) The cells were cultured in a humidified CO2 incubator (model 460-CE; Thermo Fisher Scientific, Waltham, MA, USA) at +37 °C and 5% CO2.
(§3) The percentage of the viable cells was calculated according to the following equation: cell viability (%) = 100 × (mean absorbance in the treatment group/mean absorbance in the control group). The results were expressed pictorially using Prism 6.0 (GraphPad Software, Boston, MA, USA).

HEpG2 = experiment: MTT cell viability assay, HEpG2; assay type: cell-based, human; details: for IC50: Homo sapiens; for Selectivity index (SI): ratio of IC50 values healthy (HEK293) / HEpG2
Description: as §1

HEK293 = experiment: MTT cell viability assay, HEK293; assay type: cell-based; details: Homo sapiens
Description: as §1

MS = experiment: MTT cell viability assay, MS; assay type: cell-based, human; details: for IC50: Homo sapiens; for Selectivity index (SI): ratio of IC50 values healthy (HEK293) / MS;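 as to IC50 (mean ± SD): MS is a melanocyte cell line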
Description: as §1

MCF-7 = experiment: MTT cell viability assay, MCF-7; assay type: cell-based, human; details: for IC50: Homo sapiens, MCF7; for Selectivity index (SI): ratio of IC50 values healthy (HEK293) / MCF-7
Description: as §1

PC-3 = experiment: MTT cell viability assay, PC-3; assay type: cell-based, human; details: for IC50: Homo sapiens; for Selectivity index (SI): ratio of IC50 values healthy (HEK293) / PC-3
Description: as §1

HBL-100/Dox = experiment: MTT cell viability assay, HBL-100/Dox; assay type: cell-based, human; details: for IC50: Homo sapiens; for Selectivity index (SI): ratio of IC50 values healthy (HEK293) / HBL-100/Dox
Protocol: as §2, §3

human cancer cell lines = experiment: MTT assay, panel of cancer cell lines; details: for IC50: Homo sapiens, read-out: moderate activity (range); for cytotoxicity in the screening studies: MTT screening, Table S1
Protocol: In this study, the human embryonic kidney cell line HEK293 was used as the non-cancerous cell line.
To investigate the cytotoxic activity of the compounds under study, the MTT colorimetric assay [45] was performed. […] After 72 h, 20 μL of 5 mg/mL solution of MTT (PanEco, Moscow, Russia), in sterile phosphate-buffered saline (PBS; PanEco, Moscow, Russia), was added to each well and further incubated for 4 h. Then, the medium with the compounds was removed, and the formed formazan crystals were dissolved in 100 μL of DMSO. […] The IC50 values were determined from dose-dependent curves, using Prism 6.0 (GraphPad Software, Boston, MA, USA).

A549 = experiment: MTT cell viability assay, A549; assay type: cell-based, human; details: for IC50: Homo sapiens; for Selectivity index (SI): ratio of IC50 values healthy (HEK293) / A549
Description: as §1

HCT116 = experiment: MTT cell viability assay, HCT116; assay type: cell-based, human; details: for IC50: Homo sapiens, HCT-116; for Selectivity index (SI): ratio of IC50 values healthy (HEK293) / HCT116
Description: as §1

[1] = RD TE32, MTT, 72 h of treatment, read-out: IC50 Values (Mean ± SD)
[2] = Table S1, RD TE32, read-out: IC50 (mean ± SD)
[3] = HBL-100, MTT, 72 h of treatment, read-out: IC50 Values (Mean ± SD)
[4] = Table S1, HBL-100, read-out: IC50 (mean ± SD)
[5] = HEpG2, MTT, 72 h of treatment, read-out: IC50 Values (Mean ± SD)
[6] = HEK293, MTT, 72 h of treatment, read-out: IC50 Values (Mean ± SD)
[7] = Table S1, HEK293, read-out: IC50 (mean ± SD)
[8] = MS, MTT, 72 h of treatment, read-out: IC50 Values (Mean ± SD)
[9] = MCF-7, MTT, 72 h of treatment, read-out: IC50 Values (Mean ± SD)
[10] = Table S1, MCF-7, read-out: IC50 (mean ± SD)
[11] = PC-3, MTT, 72 h of treatment, read-out: IC50 Values (Mean ± SD)
[12] = Table S1, PC-3, read-out: IC50 (mean ± SD)
[13] = HBL-100, 72 h, read-out: IC50 Values (Mean ± SD)
[14] = HBL-100, read-out: IC50 (mean ± SD)
[15] = A549, MTT, 72 h of treatment, read-out: IC50 Values (Mean ± SD)
[16] = HCT116, MTT, 72 h of treatment, read-out: IC50 Values (Mean ± SD)
[17] = Table S1, HCT116, read-out: IC50 (mean ± SD)
[18] = Table S1, A549, read-out: IC50 (mean ± SD)
[19] = Table S1, HEpG2, read-out: IC50 (mean ± SD)
[20] = Table S1, MS, read-out: IC50 (mean ± SD)

C=C1C[C@H](C#N)C[C@@]2(C)C1CC[C@]1(C)C2CCC2C3C(C(C)C)CC[C@]3(CO)CC[C@]21C (stereo partly drawn) [compound 12, 2-Cyano-28-hydroxy-3,4-seco-3-nor-2,24-cyclolup-4(23)-ene]
IC50 (RD TE32; [1]): 98.6 ± 2.3 µM
IC50 (RD TE32; [2]): 98.6 ± 2.33 µM
Selectivity index (SI) (RD TE32): 0.78
IC50 (HBL-100; [3]): 36.6 ± 1.4 µM
IC50 (HBL-100; [4]): 36.6 ± 1.44 µM
Selectivity index (SI) (HBL-100): 2.09
IC50 (HEpG2; [5]): > 100 µM
Selectivity index (SI) (HEpG2): < 0.77
IC50 (HEK293; [6]): 76.5 ± 2.5 µM
IC50 (HEK293; [7]): 76.5 ± 2.49 µM
IC50 (MS; [8]): > 200 µM
Selectivity index (SI) (MS): < 0.38
IC50 (MCF-7; [9]): 64.2 ± 3 µM
IC50 (MCF-7; [10]): 64.2 ± 3.01 µM
Selectivity index (SI) (MCF-7): 1.19
IC50 (PC-3; [11]): 55.7 ± 4.9 µM
IC50 (PC-3; [12]): 55.7 ± 4.89 µM
Selectivity index (SI) (PC-3): 1.37
IC50 (HBL-100/Dox; [13]): 63 ± 1.9 µM
IC50 (HBL-100/Dox; [14]): 63 ± 1.92 µM
Selectivity index (SI) (HBL-100/Dox): 1.21
IC50 (human cancer cell lines): 16 to 77.8 µM
cytotoxicity in the screening studies (human cancer cell lines): relatively weak or moderate cytotoxicity
melting point: 185.1 °C
IC50 (A549; [15]): 44.4 ± 2.4 µM
Selectivity index (SI) (A549): 1.72
IC50 (HCT116; [16]): 51 ± 3.7 µM
IC50 (HCT116; [17]): 51 ± 3.67 µM
Selectivity index (SI) (HCT116): 1.50

CC(C)C1CC[C@]2(CO)CC[C@]3(C)C(CCC4[C@@]5(C)CC(C#N)=CC(=O)C5CC[C@]43C)C12 (stereo partly drawn) [compound 14, 2-Cyano-28-hydroxy-4-oxo-3,4-seco-3,23-dinor-2,24-cyclolup-2(24)-ene]
IC50 (RD TE32; [1]): 49.1 ± 1.4 µM
Selectivity index (SI) (RD TE32): 1.58
IC50 (HBL-100; [3]): 46.9 ± 2.2 µM
IC50 (HBL-100; [4]): 46.9 ± 2.22 µM
Selectivity index (SI) (HBL-100): 1.66
IC50 (HEpG2; [5]): > 100 µM
Selectivity index (SI) (HEpG2): < 0.78
IC50 (HEK293; [6]): 77.8 ± 2.9 µM
IC50 (HEK293; [7]): 77.8 ± 2.9 µM
IC50 (MS; [8]): 69.1 ± 1 µM
Selectivity index (SI) (MS): 1.13
IC50 (MCF-7; [9]): 56.7 ± 3.7 µM
IC50 (MCF-7; [10]): 56.7 ± 3.72 µM
Selectivity index (SI) (MCF-7): 1.37
IC50 (PC-3; [11]): 28.3 ± 2.3 µM
IC50 (PC-3; [12]): 28.3 ± 2.29 µM
Selectivity index (SI) (PC-3): 2.75
IC50 (HBL-100/Dox; [13]): 54 ± 1.8 µM
IC50 (HBL-100/Dox; [14]): 54 ± 1.82 µM
Selectivity index (SI) (HBL-100/Dox): 1.44
IC50 (human cancer cell lines): 16 to 77.8 µM
cytotoxicity in the screening studies (human cancer cell lines): relatively weak or moderate cytotoxicity
melting point: 121 °C
IC50 (A549; [15]): 63.2 ± 1.4 µM
IC50 (A549; [18]): 63.2 ± 1.42 µM
Selectivity index (SI) (A549): 1.23
IC50 (HCT116; [16]): 49.9 ± 0.1 µM
Selectivity index (SI) (HCT116): 1.56

CC(=O)C1CC[C@]2(C)C(CCC3C4C(C(C)C)CC[C@]4(COC(=O)c4ccccc4)CC[C@]32C)[C@@]1(C)CCC#N (stereo partly drawn) [compound 20, 28-Benzoyloxy-2-cyano-4-oxo-3,4-seco-3,23-dinorlupane]
IC50 (RD TE32; [2]): > 100 µM
IC50 (HBL-100; [4]): > 200 µM
IC50 (HEpG2; [19]): > 100 µM
IC50 (HEK293; [7]): > 100 µM
IC50 (MS; [20]): > 100 µM
IC50 (MCF-7; [10]): > 100 µM
IC50 (PC-3; [12]): > 100 µM
IC50 (HBL-100/Dox; [14]): > 200 µM
melting point: 185.8 °C
IC50 (A549; [18]): > 100 µM
IC50 (HCT116; [17]): > 100 µM

COC(=O)[C@]12CCC(C(C)C)C1C1CCC3[C@@](C)(CCC#N)C(C(C)=O)CC[C@@]3(C)[C@]1(C)CC2 (stereo partly drawn) [compound 21, 2-Cyano-4-oxo-3,4-seco-3,23-dinorlupan-28-oic acid methyl ester]
IC50 (RD TE32; [2]): > 100 µM
IC50 (HBL-100; [4]): > 100 µM
IC50 (HEpG2; [19]): > 100 µM
IC50 (HEK293; [7]): > 100 µM
IC50 (MS; [20]): > 100 µM
IC50 (MCF-7; [10]): 97.5 ± 4.21 µM
IC50 (PC-3; [12]): > 100 µM
IC50 (HBL-100/Dox; [14]): > 200 µM
melting point: 177.2 °C
IC50 (A549; [18]): > 100 µM
IC50 (HCT116; [17]): > 100 µM

CC1=C(C#N)C[C@@]2(C)C1CC[C@]1(C)C2CCC2C3C(C(C)C)CC[C@]3(CO)CC[C@]21C (stereo partly drawn) [compound 22, 2-Cyano-28-hydroxy-3,4-seco-3,23-dinor-2,4-cyclolup-2(4)-ene]
IC50 (RD TE32; [2]): 84.7 ± 3.68 µM
IC50 (HBL-100; [4]): > 100 µM
IC50 (HEpG2; [19]): > 100 µM
IC50 (HEK293; [7]): > 100 µM
IC50 (MS; [20]): > 100 µM
IC50 (MCF-7; [10]): 89.3 ± 3.01 µM
IC50 (PC-3; [12]): 36.5 ± 1.31 µM
IC50 (HBL-100/Dox; [14]): > 100 µM
melting point: 184.2 °C
IC50 (A549; [18]): > 200 µM
IC50 (HCT116; [17]): 74.2 ± 2.56 µM

COC(=O)[C@]12CCC(C(C)C)C1C1CCC3[C@@]4(C)CC(C#N)=C(C)C4CC[C@@]3(C)[C@]1(C)CC2 (stereo partly drawn) [compound 23, 2-Cyano-3,4-seco-3,23-dinor-2,4-cyclolup-2(4)-en-28-oic acid methyl ester]
IC50 (RD TE32; [2]): > 100 µM
IC50 (HBL-100; [4]): > 100 µM
IC50 (HEpG2; [19]): > 200 µM
IC50 (HEK293; [7]): > 100 µM
IC50 (MS; [20]): > 100 µM
IC50 (MCF-7; [10]): 70.2 ± 3.09 µM
IC50 (PC-3; [12]): > 200 µM
IC50 (HBL-100/Dox; [14]): > 100 µM
melting point: 168.5 °C
IC50 (A549; [18]): > 200 µM
IC50 (HCT116; [17]): > 100 µM

CC(C)C1CC[C@]2(COC(=O)c3ccccc3)CC[C@]3(C)C(CCC4[C@@](C)(CCC#N)C(C(=O)CBr)CC[C@]43C)C12 (stereo partly drawn) [compound 28, 28-Benzoyloxy-24-bromo-2-cyano-4-oxo-3,4-seco-3,23-dinorlupane]
IC50 (RD TE32; [2]): > 100 µM
IC50 (HBL-100; [4]): > 100 µM
IC50 (HEpG2; [19]): > 100 µM
IC50 (HEK293; [7]): > 100 µM
IC50 (MS; [20]): > 100 µM
IC50 (MCF-7; [10]): 86.1 ± 10.1 µM
IC50 (PC-3; [12]): > 100 µM
IC50 (HBL-100/Dox; [14]): > 200 µM
melting point: 91.6 °C
IC50 (A549; [18]): > 100 µM
IC50 (HCT116; [17]): > 100 µM

CC(C)C1CC[C@]2(COC(=O)c3ccccc3)CC[C@]3(C)C(CCC4[C@@](C)(CCC#N)C(C(=O)C(Br)Br)CC[C@]43C)C12 (stereo partly drawn) [compound 29, 28-Benzoyloxy-2-cyano-24,24-dibromo-4-oxo-3,4-seco-3,23-dinorlupane]
IC50 (RD TE32; [2]): 73.2 ± 5.24 µM
IC50 (HBL-100; [4]): > 100 µM
IC50 (HEpG2; [19]): > 100 µM
IC50 (HEK293; [7]): > 100 µM
IC50 (MS; [20]): > 100 µM
IC50 (MCF-7; [10]): 49 ± 5.33 µM
IC50 (PC-3; [12]): > 100 µM
IC50 (HBL-100/Dox; [14]): > 200 µM
melting point: 107.7 °C
IC50 (A549; [18]): > 100 µM
IC50 (HCT116; [17]): > 200 µM
